Source: patent US20230248759A1, “ORAL RINSE COMPOSITIONS FOR ALLEVIATING XEROSTOMIA COMPRISING POLYETHYLENE GLYCOL DERIVATIVES” (SunBio Inc., priority 2021, published 2023)

Tested on: cultured cells (L-929)
Assay: Cytotoxicity test, liquid sample (dilution type), ISO 10993
Type: cell-based
Details: L-929, liquid test, 0.025 g/ml in media for test material
Method: The cytotoxicity test is a test to confirm the safety of the composition according to the present invention, and the presence and degree of a cytotoxic reaction in cultured cells (L-929) was evaluated. A good laboratory practice (GLP) institution was commissioned to perform the test according to each test method presented in ISO 10993.
5-2. Test Method of Liquid Sample: A liquid test solution was prepared in which a dilution solution (2× E-MEM+10% FBS) and the liquid test material were combined/diluted in a 1:1 ratio. The culture medium of cell L-929 was removed from the plate well, replaced with 1 mL of test solution and control medium (diluent), and then the cells were cultured. During culturing, microscopic examinations were carried out every 24, 48, 72±4 hours to evaluate cytotoxicity. Cadmium chloride (100 uM CdCl2) as a positive control and E-MEM+5% FBS as a negative control were also used in the test.
As the evaluation criteria of the cytotoxicity test, a score of 0 to 4 was recorded by evaluating the morphological change of cells and the degree of change in viable cells according to lysis or separation. Scores 3 and 4 were judged to be cytotoxic, and scores of 1 and 2 were judged to be non-cytotoxic.

[Cl][Cd][Cl] [Positive Control, Cadmium chloride]
0/0/0: Cytotoxicity Score 24 hr (24 hr) | Cytotoxicity Score 48 hr (48 hr) | Cytotoxicity Score 72 hr (72 hr)
